Laboratory results from US20230355597A1, “COMPOUNDS, COMPOSITIONS, AND METHODS FOR THE TREATMENT AND PREVENTION OF AVIAN PATHOGENIC E. COLI (APEC)” (OHIO STATE INNOVATION FOUNDATION, priority 2018, published 2023).

Experiments:
Rif^r APEC O78 [1] = test: Wax moth (Galleria mellonella) larva infection model (AI-2 inhibitors); settings: 72 h post treatment
[2] = test system: AI-2 activity of APEC O115; test: AI-2 bioluminescence indicator assay (V. harveyi BB170); settings: APEC O115, 100 µM
AI-2 activity of APEC O2 = test: as above; settings: APEC O2, 100 µM
[3] = test system: AI-2 activity of APEC O35; test: as above; settings: APEC O35, 100 µM
[4] = test system: AI-2 activity of APEC O15; test: as above; settings: APEC O15, 100 µM
AI-2 activity of APEC O8 = test: as above; settings: APEC O8, 100 µM
[5] = test system: AI-2 activity of APEC O18; test: as above; settings: APEC O18, 100 µM
[6] = test system: QS and virulence associated genes of APEC O78; test: qRT-PCR of QS-regulated and virulence factors genes; type: cell-based, avian pathogenic Escherichia coli (APEC); settings: 100 µM, 10 h
[7] = test system: AI-2 activity of APEC O78; test: AI-2 bioluminescence indicator assay (V. harveyi BB170); settings: APEC O78, 100 µM
[8] = test system: AI-2 activity of APEC O109; test: as above; settings: APEC O109, 100 µM
Rif^r APEC O78 [9] = test: In vivo screening of quorum sensing inhibitors in APEC infected broiler chickens; settings: for reduction in chicken mortality: DMSO control mortality normalized to 100%; for Mortality rate (%): oral gavage once a day, day 4 to day 8, DMSO control 66.7%; for Reduction in APEC lesions severity, Air-sacs (%) / Reduction in APEC lesions severity, Heart (%) / Reduction in APEC lesions severity, Liver (%) / Reduction in APEC lesions severity, Lung (%): vs DMSO treated control
[10] = test system: APEC O78 biofilm formation; test: Biofilm assay (crystal violet); type: cell-based, avian pathogenic Escherichia coli (APEC); settings: 100 µM, 48 h
Description: Biofilm assay. […] Briefly, APEC O78 was grown in LB broth in the presence of 100 µM of each compound in a 96-well plate at 37° C. for 10 h. The culture was then diluted 1:100 in fresh LB broth. The biofilm assay was performed in 96-well plate contain 150 µL of the diluted culture and 100 µM of each compound. The plate was then incubated aerobically without shaking at 37° C. for 48 h, washed twice with PBS to remove the non-adherent cells and stained with 200 µL of 0.1% CV in water at room temperature for 10 min. The plate was washed with PBS and biofilm was quantified by measuring the absorbance at 550 nm after solubilizing the CV in 200 µL of 30% acetic acid in water for 15 min.

AI-2 activity of APEC O1 = test: AI-2 bioluminescence indicator assay (V. harveyi BB170); settings: APEC O1, 100 µM
APEC O1 in HD-11 cells = test: Intracellular survival assay (AI-2 inhibitors); settings: O1, HD-11, 100 µM, 6 h
APEC O2 in THP-1 cells = test: Intracellular survival assay (AI-2 inhibitors); settings: O2, THP-1, 100 µM, 6 h
APEC O78 in HD-11 cells = test: Intracellular survival assay (AI-2 inhibitors); type: cell-based, avian pathogenic Escherichia coli (APEC); settings: O78, HD-11, 100 µM, 6 h
Text: Intracellular survival assay.

Caco-2 cells = test: LDH assay of AI-2 inhibitors; settings: Caco-2, 100 µM, 24 h
APEC O2 in HD-11 cells = test: Intracellular survival assay (AI-2 inhibitors); settings: O2, HD-11, 100 µM, 6 h
APEC O78 in THP-1 cells = test: Intracellular survival assay (AI-2 inhibitors); settings: O78, THP-1, 100 µM, 6 h, vs DMSO

Row | Compound | Inhibition % of AI-2 activity [2] [%] | Inhibition % of AI-2 activity (AI-2 activity of APEC O2) [%] | Inhibition % of AI-2 activity [3] [%] | Inhibition % of AI-2 activity [4] [%] | Inhibition % of AI-2 activity (AI-2 activity of APEC O8) [%] | Inhibition % of AI-2 activity [5] [%] | Inhibition % of AI-2 activity [7] [%] | Inhibition % of AI-2 activity [8] [%] | reduction in chicken mortality (Rif^r APEC O78 [9]) [%] | Mortality rate (%) (Rif^r APEC O78 [9]) | Reduction in APEC lesions severity, Air-sacs (%) (Rif^r APEC O78 [9]) | Reduction in APEC lesions severity, Heart (%) (Rif^r APEC O78 [9]) | Reduction in APEC lesions severity, Liver (%) (Rif^r APEC O78 [9]) | Reduction in APEC lesions severity, Lung (%) (Rif^r APEC O78 [9]) | Inhibition % of AI-2 activity (AI-2 activity of APEC O1) [%] | other results
1 | COCCN1CCC(CN(Cc2ccncc2)Cc2ccccc2Cl)CC1 [C1, {2-chlorobenzyl)([1(2-methoxyethyly-4-piperidinyl]methyl)4-pyridinyimethyl)amine] | 64 | 94 | 48 | 13 | 20 | 37 | 84 | 65 | 25 | 50 | 26.7 | 0 | 0 | 66.7 |  | larval death (Rif^r APEC O78 [1]): no larval death; expression of murD [6]: down-regulated; induction of biofilm formation of APEC O78 [10]: up to 100%
2 | NC(=O)c1ccccc1Nc1cccc(C(F)(F)F)c1 [C3, 2-[[3-(trifuoromethyl)phenyl]amino]benzamide] | 35 | 54 | 37 | 0 | 39 | 8 | 78 | 0 |  |  |  |  |  |  | 65 | clearance of intracellular APEC (APEC O1 in HD-11 cells): 100%; reduction of intracellular survival (APEC O1 in HD-11 cells; vs DMSO): 4 logs; expression of fpr [6]: down-regulated
3 | OCCC1CN(C2CCN(c3ccccc3)CC2)CCN1CCCc1ccccc1 (stereo not drawn) [C10] |  | 89 | 47 | 22 | 0 | 35 | 84 | 57 | 75 | 16.6 | 88.9 | 83.3 | 100 | 100 | 64 | clearance of intracellular APEC (APEC O2 in THP-1 cells): 100%; reduction of intracellular survival (APEC O2 in THP-1 cells; vs DMSO): 4 logs; clearance of intracellular APEC (APEC O78 in HD-11 cells): 100%; reduction of intracellular survival (APEC O78 in HD-11 cells; vs DMSO): 4 logs; toxicity (LDH) (Caco-2 cells): 27%; clearance of intracellular APEC (APEC O2 in HD-11 cells): 100%; reduction of intracellular survival (APEC O2 in HD-11 cells; vs DMSO): 3.3 logs; reduction of intracellular survival (APEC O78 in THP-1 cells): up to 0.7 logs; expression of fliP [6]: down-regulated; average lesion score reduction (Rif^r APEC O78 [9]; liver, heart, lung and airsac, vs DMSO): 1.5-2.3; reduction of bacterial load in internal organs (Rif^r APEC O78 [9]; liver, lung, heart, and kidney, vs DMSO control, 'up to'): 3.4-4.3 log CFU/g
